Values of other authors as cited in patent US20250169496A1, “USE OF 2-AMINO-3-HYDROXY-3-METHYLBUTYRIC ACID AND/OR 2-AMINO-3-(4-HYDROXYPHENYL) BUTYRIC ACID” (NANJING TIANNONG BIOTECHNOLOGY CO., LTD., priority 2021, published 2025).

System: Lactobacihs arabinosu
Conditions: cited from earlier work

## CC(C)(O)[C@H](N)C(=O)O [L-2-amino-3-hydroxy-3-methylbutyric acid]
  Inhibition of the synthesis of valine: could inhibit the synthesis of valine
